In assay [1] the target is T1, phosphorylated ERBB2 (pERBB2) (Homo sapiens, UniProt P04626).
T1 construct: endogenous in cells; host or cells: BT-474
Put plainly: Detection of phosphorylated ERBB2 (pERBB2) by ELISA in BT-474 cells. To be noted: four hour incubation. The class given is cell-based. On the procedure: BT-474 cells were seeded into a 96-well at 2.0*10^4 cells/100 μl/well. Compounds were dissolved and serially diluted in DMSO. The compounds were then were added, mixed, and incubated for four hours at 37° C., 5% CO2. Compounds were added using four-fold dilutions at final concentrations ranging from 10 μM to 0.01 nM. Following the four hour incubation with compounds, cell lysates were prepared. Plates were centrifuged for 5 μmin at 3000 RPM, and supernatant was removed from each well. Cells were washed 3 times by resuspension in 150 μl PBS, followed by centrifugation and removal of the supernatant, as above. 100 μl of cell lysis buffer (Boston BioProducts, cat #BP-115D) supplied with 1× complete ULTRA cocktail inhibitor (Thermo ScientificTM, cat #78443) was then added to the washed cells. Cells were incubated with lysis buffer for 1 hour at 4° C., and then stored at -80° C. Enzyme-linked immunosorbent assays (ELISA) were performed to measure phosphorylated ERBB2 levels. […] The next day, plates were washed with PBS+0.05% Tween20 (PBST). 150 μl of 5% BSA blocking solution was added for 1 hour at room temperature, with shaking. Plates were washed with PBST. Cell lysates were thawed and 100 μl of lysate was added to the ELISA plate. The plates were incubated for 2 hours at room temperature, with shaking. ELISA plates were then washed with PBST and 100 μl of an HRP-labeled detection antibody that binds phosphorylated tyrosine (R&D Systems, cat #841913) was added to each well. Plates were incubated for 1 hour at room temperature, with shaking. Plates were then washed with PBST, and 100 μl TMB substrate solution (R&D Systems, cat #DY999) was added. Plate were incubated in the dark for 20 minutes at room temperature. 50 μl of Stop solution (R&D Systems, cat #DY994) (50 μl) was added to each well and mixed. Optical density at 450 nm was read on an EnSpire plate reader (Perkin Elmer). The remaining kinase activity by calculated using the following formula: % Relative activity=100×([…]). The low and high control values (“LC” and “HC”) were generated from lysate from wells without cells or with cells treated with 0.1% DMSO, respectively.
On the technique in general: In an ELISA, binding on a coated surface is turned into a signal by an enzyme label.

For assay [2], the target named is T2, phosphorylated EGFR (pEGFR) (Homo sapiens, UniProt P00533).
T2 construct: performed to measure phosphorylated EGFR levels using A431 cells (10% FBS); endogenous in cells; host or cells: A431
T2 sequence (P00533 25-1210): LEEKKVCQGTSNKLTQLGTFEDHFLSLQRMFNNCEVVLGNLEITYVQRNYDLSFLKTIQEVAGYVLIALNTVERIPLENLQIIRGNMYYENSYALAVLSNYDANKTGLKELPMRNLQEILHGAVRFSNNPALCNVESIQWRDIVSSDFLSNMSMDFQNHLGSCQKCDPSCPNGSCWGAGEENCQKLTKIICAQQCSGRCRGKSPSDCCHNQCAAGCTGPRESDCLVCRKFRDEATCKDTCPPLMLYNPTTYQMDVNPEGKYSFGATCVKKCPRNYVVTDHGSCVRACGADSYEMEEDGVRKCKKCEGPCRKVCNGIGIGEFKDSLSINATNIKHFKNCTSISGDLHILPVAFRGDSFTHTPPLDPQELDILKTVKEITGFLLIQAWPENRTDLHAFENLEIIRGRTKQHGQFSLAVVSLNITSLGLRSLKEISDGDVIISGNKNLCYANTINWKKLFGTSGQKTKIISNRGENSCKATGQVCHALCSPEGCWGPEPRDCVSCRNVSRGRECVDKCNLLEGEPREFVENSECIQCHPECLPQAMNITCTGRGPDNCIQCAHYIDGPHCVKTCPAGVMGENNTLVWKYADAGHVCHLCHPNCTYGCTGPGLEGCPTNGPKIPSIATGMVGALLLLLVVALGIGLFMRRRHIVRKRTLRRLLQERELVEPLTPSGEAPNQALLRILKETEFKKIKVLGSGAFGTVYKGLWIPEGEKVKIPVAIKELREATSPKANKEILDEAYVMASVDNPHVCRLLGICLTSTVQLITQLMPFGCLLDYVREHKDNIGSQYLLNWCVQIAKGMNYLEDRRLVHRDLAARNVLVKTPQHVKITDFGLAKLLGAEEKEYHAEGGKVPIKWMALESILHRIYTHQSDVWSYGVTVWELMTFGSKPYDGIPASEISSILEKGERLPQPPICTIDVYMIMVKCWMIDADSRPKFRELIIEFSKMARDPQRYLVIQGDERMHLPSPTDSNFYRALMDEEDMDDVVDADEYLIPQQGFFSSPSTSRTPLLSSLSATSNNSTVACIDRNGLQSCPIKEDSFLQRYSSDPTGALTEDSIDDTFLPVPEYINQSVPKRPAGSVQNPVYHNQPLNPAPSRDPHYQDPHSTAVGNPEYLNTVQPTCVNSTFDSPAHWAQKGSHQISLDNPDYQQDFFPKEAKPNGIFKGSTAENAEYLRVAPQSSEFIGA
Put plainly: Detection of phosphorylated EGFR (pEGFR) by AlphaLISA in EGF-stimulated A431 cells. To be noted: A431 cells (10% FBS), 4 hours incubation, EGF 30 ng/mL for 10 minutes. The class given is cell-based. How it is done:
Enzyme-linked immunosorbent assays (ELISA) were performed to measure phosphorylated EGFR levels using A431 cells (10% FBS). A431 (1.0*10^4 cells/40 μl/well) cells were seeded in 384 well. Compounds were dissolved in DMSO, serially diluted in DMSO and then were added, mixed, and incubated for 4 hours at 37° C., 5% C02. Following the 4-hours incubation, cells were stimulated for 10 minutes with EGF (Invitrogen, cat #PHG0311) at a final concentration of 30 ng/mL in the incubator. The media was aspirated and cells were lysed in 10 μL lysis buffer with protease and phosphatase inhibitors (PerkinElmer, cat #ALSU-PEGFR-A50K). The plates were placed on a shaker for 5 μminutes and then incubated for 30 min at 4° C. for complete lysis. The lysate was transferred to an Optiplate (Perkin Elmer, cat #6007290).
Acceptor mix (PerkinElmer, cat #ALSU-PEGFR-A50K) was prepared just before use and 5 μL was dispensed to all the wells, followed by a 1.5-2 h incubation at room temperature in dark. The donor mix (PerkinElmer, cat #ALSU-PEGFR-A50K) was prepared under low light conditions prior to use and 5 μl of donor mix was added to all the wells under subdued lighting or green filters. The plates were placed on a shaker for 5 μmin, sealed, and incubated overnight at room temperature in dark. Plates were read on the Envision (PerkinElmer) using standard AlphaLISA settings.
The percentage of inhibition on EGFR phosphorylation was calculated following equation: % Inhibition=100×(LumHC−LumSample)/(LumHC−LumLC). The low and high controls (LC/HC) are generated from lysate from wells with cells treated with DMSO or […] Staurosporine (BioAustralis, cat #BIA-S1086), […]. IC50 values were calculated by fitting the Curve using XLfit (v5.3.1.3), equation 201: Y=Bottom+(Top−Bottom)/(1+10^((Log IC50−X)*HillSlope)).
Background: Alpha assays give light when donor and acceptor beads are brought close together.

pIC50: −log10 of the molar value. A value given as a limit tells only on which side of the number the result lay.

T1 sequence (P04626 23-1255): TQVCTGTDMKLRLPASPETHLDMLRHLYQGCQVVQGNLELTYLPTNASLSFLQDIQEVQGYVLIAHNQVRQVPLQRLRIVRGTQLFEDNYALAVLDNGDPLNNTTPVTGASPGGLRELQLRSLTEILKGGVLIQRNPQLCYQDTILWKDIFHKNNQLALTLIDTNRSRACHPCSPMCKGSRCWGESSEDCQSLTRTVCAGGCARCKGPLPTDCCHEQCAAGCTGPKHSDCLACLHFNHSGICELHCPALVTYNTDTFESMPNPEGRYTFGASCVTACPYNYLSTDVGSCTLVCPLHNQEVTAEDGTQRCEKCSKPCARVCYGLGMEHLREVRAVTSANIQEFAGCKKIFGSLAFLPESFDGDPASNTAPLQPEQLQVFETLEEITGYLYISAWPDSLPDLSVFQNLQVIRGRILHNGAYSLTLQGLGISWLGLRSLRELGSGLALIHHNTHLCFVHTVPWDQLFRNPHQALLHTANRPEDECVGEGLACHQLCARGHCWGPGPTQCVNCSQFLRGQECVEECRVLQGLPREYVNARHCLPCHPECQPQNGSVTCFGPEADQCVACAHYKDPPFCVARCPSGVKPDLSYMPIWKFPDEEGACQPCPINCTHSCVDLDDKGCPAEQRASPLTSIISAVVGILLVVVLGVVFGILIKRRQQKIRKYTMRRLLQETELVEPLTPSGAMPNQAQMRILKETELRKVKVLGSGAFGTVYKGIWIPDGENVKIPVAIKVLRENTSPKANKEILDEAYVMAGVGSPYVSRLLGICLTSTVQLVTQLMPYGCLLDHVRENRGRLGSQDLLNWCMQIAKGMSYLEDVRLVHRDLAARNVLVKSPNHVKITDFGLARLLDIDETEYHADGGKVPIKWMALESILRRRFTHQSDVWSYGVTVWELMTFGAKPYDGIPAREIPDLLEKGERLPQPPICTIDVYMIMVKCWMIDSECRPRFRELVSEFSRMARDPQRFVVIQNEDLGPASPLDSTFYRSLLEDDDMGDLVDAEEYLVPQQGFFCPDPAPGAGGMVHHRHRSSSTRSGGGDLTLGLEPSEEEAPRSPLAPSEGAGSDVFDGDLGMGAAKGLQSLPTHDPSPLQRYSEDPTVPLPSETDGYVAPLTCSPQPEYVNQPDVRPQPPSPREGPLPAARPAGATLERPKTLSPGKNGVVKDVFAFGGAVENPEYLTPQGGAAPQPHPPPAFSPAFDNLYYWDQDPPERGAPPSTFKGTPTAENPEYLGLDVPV

In general, pIC50 refers to the negative decadic logarithm of the IC50, by convention in mol/L. For the molecule `Cc1cc(Nc2ncnc3ccc4c(c23)OC[C@H]2CN4CCN2C)ccc1Oc1ccc2c(c1)ncn2C` [Compound 56, (3R)-4-methyl-N-(3-methyl-4-((1-methyl-1H-benzo[d]imidazol-5-yl)oxy)phenyl)-3,4,5,6-tetrahydro-2H-3,7-methano[1,4,7]oxadiazonino[2,3-f]quinazolin-13-amine], the pIC50 in assay [1] was 6.90; in assay [2] it was less than 5.00.
In the same order, the values of `Cc1cc(Nc2ncnc3cc4c(cc23)N2CCNC[C@H]2CO4)ccc1Oc1ccn2ncnc2c1` [Compound 57, (S)—N-(4-([1,2,4]triazolo[1,5-a]pyridin-7-yloxy)-3-methylphenyl)-1,2,3,4,4a,5-hexahydropyrazino[1′,2′:4,5][1,4]oxazino[3,2-g]quinazolin-11-amine] are 7.57 and less than 5.00.
Taken in the same sequence, the figures for `Cc1cc(Nc2ncnc3cc4c(cc23)N2CCN(C)C[C@H]2CO4)ccc1Oc1ccn2ncnc2c1` [Compound 58, (S)—N-(4-([1,2,4]triazolo[1,5-a]pyridin-7-yloxy)-3-methylphenyl)-3-methyl-1,2,3,4,4a,5-hexahydropyrazino[1′,2′:4,5][1,4]oxazino[3,2-g]quinazolin-11-amine] were 7.66 and less than 5.00.
In the same order, the values of `Cc1cc(Nc2ncnc3cc4c(cc23)N2CCNC[C@@H]2CO4)ccc1Oc1ccn2ncnc2c1` [Compound 59, (R)—N-(4-([1,2,4]triazolo[1,5-a]pyridin-7-yloxy)-3-methylphenyl)-1,2,3,4,4a,5-hexahydropyrazino[1′,2′:4,5][1,4]oxazino[3,2-g]quinazolin-11-amine] are 7.04 and less than 5.00.
On to `Cc1cc(Nc2ncnc3cc4c(cc23)N2CCN(C)C[C@@H]2CO4)ccc1Oc1ccn2ncnc2c1` [Compound 60, (R)—N-(4-([1,2,4]triazolo[1,5-a]pyridin-7-yloxy)-3-methylphenyl)-3-methyl-1,2,3,4,4a,5-hexahydropyrazino[1′,2′:4,5][1,4]oxazino[3,2-g]quinazolin-11-amine], for which the pIC50 in assay [1] was 7.01; in assay [2], less than 5.00.
In the same order, the values of `Cc1cc(Nc2ncnc3cc4c(cc23)N2CCNC[C@H]2CO4)ccc1Oc1ccc2c(c1)ncn2C` [Compound 61, (S)—N-(3-methyl-4-((1-methyl-1H-benzo[d]imidazol-5-yl)oxy)phenyl)-1,2,3,4,4a,5-hexahydropyrazino[1′,2′:4,5][1,4]oxazino[3,2-g]quinazolin-11-amine] are 6.93 and less than 5.00.
In the same order, the values of `Cc1cc(Nc2ncnc3cc4c(cc23)N2CCN(C)C[C@H]2CO4)ccc1Oc1ccc2c(c1)ncn2C` [Compound 62, (S)-3-methyl-N-(3-methyl-4-((1-methyl-1H-benzo[d]imidazol-5-yl)oxy)phenyl)-1,2,3,4,4a,5-hexahydropyrazino[1′,2′:4,5][1,4]oxazino[3,2-g]quinazolin-11-amine] are 7.41 and less than 5.00.
In the same order, the values of `Cc1cc(Nc2ncnc3cc4c(cc23)N2CCNC[C@@H]2CO4)ccc1Oc1ccc2c(c1)ncn2C` [Compound 63, (R)—N-(3-methyl-4-((1-methyl-1H-benzo[d]imidazol-5-yl)oxy)phenyl)-1,2,3,4,4a,5-hexahydropyrazino[1′,2′:4,5][1,4]oxazino[3,2-g]quinazolin-11-amine] are 6.82 and less than 5.00.
`Cc1cc(Nc2ncnc3cc4c(cc23)N2CCN(C)C[C@@H]2CO4)ccc1Oc1ccc2c(c1)ncn2C` [Compound 64, (R)-3-methyl-N-(3-methyl-4-((1-methyl-1H-benzo[d]imidazol-5-yl)oxy)phenyl)-1,2,3,4,4a,5-hexahydropyrazino[1′,2′:4,5][1,4]oxazino[3,2-g]quinazolin-11-amine]: the pIC50 was 6.65 in assay [1] and less than 5.00 in assay [2].
`CCN1CCN2c3nc4c(Nc5ccc(Oc6ccn7ncnc7c6)c(C)c5)ncnc4cc3OC[C@@H]2C1` [Compound 65, (S)—N-(4-([1,2,4]triazolo[1,5-a]pyridin-7-yloxy)-3-methylphenyl)-3-ethyl-1,2,3,4,4a,5-hexahydropyrazino[1,2-d]pyrimido[4′,5′:5,6]pyrido[3,2-b][1,4]oxazin-11-amine]: the values for the pIC50 in assay [1] and in assay [2] were 7.02 and less than 5.00, respectively.
In the same order, the values of `Cc1cc(Nc2ncnc3cc4c(c(F)c23)N2CCN(C)C[C@H]2CO4)ccc1Oc1ccn2ncnc2c1` [Compound 66, (S)—N-(4-([1,2,4]triazolo[1,5-a]pyridin-7-yloxy)-3-methylphenyl)-12-fluoro-3-methyl-1,2,3,4,4a,5-hexahydropyrazino[1′,2′:4,5][1,4]oxazino[3,2-g]quinazolin-11-amine] are 6.92 and less than 5.00.
Taken in the same sequence, the figures for `Cc1cc(Nc2ncnc3cc4c(nc23)N2CCOC[C@H]2CO4)ccc1Oc1ccn2ncnc2c1` [Compound 67, (S)—N-(4-([1,2,4]triazolo[1,5-a]pyridin-7-yloxy)-3-methylphenyl)-1,2,4a,5-tetrahydro-4H-[1,4]oxazino[4,3-d]pyrimido[4′,5′:5,6]pyrido[3,2-b][1,4]oxazin-11-amine] were 7.33 and less than 5.00.
Taken in the same sequence, the figures for `Cc1cc(Nc2ncnc3cc4c(nc23)N2CCCC[C@H]2CO4)ccc1Oc1ccn2ncnc2c1` [Compound 68, (S)—N-(4-([1,2,4]triazolo[1,5-a]pyridin-7-yloxy)-3-methylphenyl)-1,2,3,4,4a,5-hexahydropyrido[1,2-d]pyrimido[4′,5′:5,6]pyrido[3,2-b][1,4]oxazin-11-amine] were 7.26 and less than 5.00.
Take `Cc1cc(Nc2ncnc3cc4c(nc23)N2CCC[C@H]2CO4)ccc1Oc1ccn2ncnc2c1` [Compound 69, (S)—N-(4-([1,2,4]triazolo[1,5-a]pyridin-7-yloxy)-3-methylphenyl)-2,3,3a,4-tetrahydro-1H-pyrimido[4′,5′:5,6]pyrido[3,2-b]pyrrolo[1,2-d][1,4]oxazin-10-amine]: the results for the pIC50 in assay [1] and in assay [2] were 7.00 and less than 5.00, respectively.
`Cc1cc(Nc2ncnc3cc4c(nc23)N2CC[C@H]2CO4)ccc1Oc1ccn2ncnc2c1` [Compound 70, (S)—N-(4-([1,2,4]triazolo[1,5-a]pyridin-7-yloxy)-3-methylphenyl)-1,2,2a,3-tetrahydroazeto[1,2-d]pyrimido[4′,5′:5,6]pyrido[3,2-b][1,4]oxazin-9-amine]: the pIC50 is 6.73 in assay [1] and less than 5.00 in assay [2].
Taken in the same sequence, the figures for `Cc1cc(Nc2ncnc3ccc4c(c23)OC[C@H]2CN4CCO2)ccc1Oc1ccn2ncnc2c1` [Compound 71, (3R)—N-(4-([1,2,4]triazolo[1,5-a]pyridin-7-yloxy)-3-methylphenyl)-2,3,5,6-tetrahydro-3,7-methano[1,4,7]dioxazonino[5,6-f]quinazolin-13-amine] were 6.64 and less than 5.00.
In the same order, the values of `Cc1cc(Nc2ncnc3ccc4c(c23)OC[C@@H]2CN4CCO2)ccc1Oc1ccn2ncnc2c1` [Compound 72, (3S)—N-(4-([1,2,4]triazolo[1,5-a]pyridin-7-yloxy)-3-methylphenyl)-2,3,5,6-tetrahydro-3,7-methano[1,4,7]dioxazonino[5,6-f]quinazolin-13-amine] are 6.38 and less than 5.00.

Values taken from patent publication US20260078135A1, “POLYCYCLIC QUINAZOLINES FOR INHIBITION OF ERBB2” (Enliven Inc., priority 2022, published 2026).
